Where “and” joins values, the source holds several entries; their conditions need not be identical. Equal entries are not always repeated. ± gives the expanded uncertainty stated by the source.
Test: isobaric coefficient of expansion
Settings: Gas, Pressure calorimetry

## N#N [nitrogen]
302.9 K, 15 kPa
  isobaric coefficient of expansion: 0.004 ± 0.0001 1/K
302.9 K, 30 kPa
  isobaric coefficient of expansion: 0.0036 ± 0.0001 1/K
302.9 K, 39.9 kPa
  isobaric coefficient of expansion: 0.00322 ± 0.0001 1/K
302.9 K, 60 kPa
  isobaric coefficient of expansion: 0.00262 ± 8e-05 1/K
302.9 K, 70 kPa
  isobaric coefficient of expansion: 0.00243 ± 8e-05 1/K
302.9 K, 80 kPa
  isobaric coefficient of expansion: 0.00224 ± 7e-05 1/K
302.9 K, 89.9 kPa
  isobaric coefficient of expansion: 0.00209 ± 7e-05 1/K
322.9 K, 13 kPa
  isobaric coefficient of expansion: 0.0036 ± 0.0001 1/K
322.9 K, 14 kPa
  isobaric coefficient of expansion: 0.0036 ± 0.0001 1/K
322.9 K, 15 kPa
  isobaric coefficient of expansion: 0.0036 ± 0.0001 1/K
322.9 K, 16 kPa
  isobaric coefficient of expansion: 0.0036 ± 0.0001 1/K
322.9 K, 18 kPa
  isobaric coefficient of expansion: 0.0036 ± 0.0001 1/K
322.9 K, 20 kPa
  isobaric coefficient of expansion: 0.0036 ± 0.0001 1/K
322.9 K, 30 kPa
  isobaric coefficient of expansion: 0.00333 ± 0.0001 1/K
322.9 K, 40 kPa
  isobaric coefficient of expansion: 0.00303 ± 0.0001 1/K
322.9 K, 60 kPa
  isobaric coefficient of expansion: 0.0025 1/K and 0.00251 1/K
322.9 K, 80 kPa
  isobaric coefficient of expansion: 0.00212 ± 7e-05 1/K
352.6 K, 14 kPa
  isobaric coefficient of expansion: 0.00309 ± 0.0001 1/K
352.6 K, 30 kPa
  isobaric coefficient of expansion: 0.00297 1/K and 0.00299 1/K
352.6 K, 40 kPa
  isobaric coefficient of expansion: 0.0026 ± 0.0001 1/K
352.6 K, 50 kPa
  isobaric coefficient of expansion: 0.00252 ± 8e-05 1/K
352.6 K, 60 kPa
  isobaric coefficient of expansion: 0.00232 ± 8e-05 1/K
352.6 K, 70 kPa
  isobaric coefficient of expansion: 0.00217 ± 6.7e-05 1/K
352.6 K, 80 kPa
  isobaric coefficient of expansion: 0.002 ± 7e-05 1/K
352.6 K, 90 kPa
  isobaric coefficient of expansion: 0.00186 ± 6e-05 1/K
422.2 K, 18 kPa
  isobaric coefficient of expansion: 0.00244 ± 8e-05 1/K
422.2 K, 22 kPa
  isobaric coefficient of expansion: 0.00249 ± 8e-05 1/K
422.2 K, 24 kPa
  isobaric coefficient of expansion: 0.00248 ± 8e-05 1/K
422.2 K, 26 kPa
  isobaric coefficient of expansion: 0.00238 ± 8e-05 1/K
422.2 K, 28 kPa
  isobaric coefficient of expansion: 0.00236 ± 8e-05 1/K
422.2 K, 30 kPa
  isobaric coefficient of expansion: 0.00236 ± 8e-05 1/K
422.2 K, 40 kPa
  isobaric coefficient of expansion: 0.00225 ± 6e-05 1/K
422.2 K, 50 kPa
  isobaric coefficient of expansion: 0.00206 ± 6e-05 1/K
422.2 K, 60 kPa
  isobaric coefficient of expansion: 0.00194 ± 5e-05 1/K
422.2 K, 70 kPa
  isobaric coefficient of expansion: 0.00184 ± 6e-05 1/K
422.2 K, 80 kPa
  isobaric coefficient of expansion: 0.00177 ± 6e-05 1/K
422.2 K, 90 kPa
  isobaric coefficient of expansion: 0.00165 ± 6e-05 1/K

Source: the NIST ThermoML archive (doi:10.1016/j.tca.2004.09.020)
